Experiments:
Assay in all cases: relative viability (nuclei count vs DMSO), 5 days (fraction); higher = more cells survive
BI-D1870 + Bortezomib = compound: CC(C)CCN1c2nc(Nc3cc(F)c(O)c(F)c3)ncc2N(C)C(=O)C1C [BI-D1870] + CC(C)C[C@H](NC(=O)[C@H](Cc1ccccc1)NC(=O)c1cnccn1)B(O)O [Bortezomib] (partner 0.002 µM)
Summary of the method: (§1)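 Lung cancer cell lines, seeded in 1536-well plates, were treated the following day by pin tool with a single drug or with five library-drug doses (not always all listed) in √10 steps on top of a fixed anchor-drug dose. Cells were fixed and nuclei stained in one step after 5 days, and nuclei were counted. Relative viability is the nuclei count for treated wells divided by that for vehicle wells, reported as medians of duplicate plates.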

BI-D1870 + Luminespib = compound: CC(C)CCN1c2nc(Nc3cc(F)c(O)c(F)c3)ncc2N(C)C(=O)C1C [BI-D1870] + CCNC(=O)c1noc(-c2cc(C(C)C)c(O)cc2O)c1-c1ccc(CN2CCOCC2)cc1 [Luminespib] (partner 0.01 µM)
Summary of the method: as §1

BI-D1870 + Pemetrexed = compound: CC(C)CCN1c2nc(Nc3cc(F)c(O)c(F)c3)ncc2N(C)C(=O)C1C [BI-D1870] + Nc1nc2[nH]cc(CCc3ccc(C(=O)N[C@@H](CCC(=O)O)C(=O)O)cc3)c2c(=O)[nH]1 [Pemetrexed] (partner 0.2 µM)
Summary of the method: as §1

Zebularine + Tozasertib = compound: O=c1ncccn1[C@@H]1O[C@H](CO)[C@@H](O)[C@H]1O [Zebularine] + Cc1cc(Nc2cc(N3CCN(C)CC3)nc(Sc3ccc(NC(=O)C4CC4)cc3)n2)n[nH]1 [Tozasertib] (partner 0.1 µM)
Summary of the method: as §1

Work on UMC-11 yielded a relative viability (BI-D1870 + Bortezomib; first compound 0.04 µM) of 0.788, a relative viability (BI-D1870 + Bortezomib; first compound 0.1265 µM) of 0.647 and a relative viability (BI-D1870 + Bortezomib; first compound 0.4 µM) of 0.561. The relative viability (BI-D1870 + Bortezomib; first compound 1.265 µM) was 0.712, the relative viability (BI-D1870 + Bortezomib; first compound 4 µM) was 0.553 and the relative viability (BI-D1870 + Luminespib; first compound 0.04 µM) was 1.06. For the same cell line, the relative viability (BI-D1870 + Luminespib; first compound 0.1265 µM) was 1.05, the relative viability (BI-D1870 + Luminespib; first compound 0.4 µM) was 0.939 and the relative viability (BI-D1870 + Luminespib; first compound 1.265 µM) was 1.08. For the same cell line, the relative viability (BI-D1870 + Luminespib; first compound 4 µM) was 0.206, the relative viability (BI-D1870 + Pemetrexed; first compound 0.04 µM) was 0.812 and the relative viability (BI-D1870 + Pemetrexed; first compound 0.1265 µM) was 0.751. The relative viability (BI-D1870 + Pemetrexed; first compound 0.4 µM) was 0.777, the relative viability (BI-D1870 + Pemetrexed; first compound 1.265 µM) was 0.779 and the relative viability (BI-D1870 + Pemetrexed; first compound 4 µM) was 0.277. It also gave a relative viability (Zebularine + Tozasertib; first compound 1 µM) of 0.191, a relative viability (Zebularine + Tozasertib; first compound 3.162 µM) of 0.192 and a relative viability (Zebularine + Tozasertib; first compound 10 µM) of 0.219. It also gave a relative viability (Zebularine + Tozasertib; first compound 31.62 µM) of 0.213 and a relative viability (Zebularine + Tozasertib; first compound 100 µM) of 0.207.
